Measured values taken from patent US20220202882A1, “EFFECT OF COMBINATION OF BIFIDOBACTERIUM AND BERBERINE ON PRE-DIABETES AND TYPE 2 DIABETES” (The Fourth Military Medical University, priority 2018, published 2022).
Where a name gives a salt, the structure may show the parent alone.

Columns and labels:
[1] = test system: pre-diabetic and type 2 diabetes mellitus patients; test: Clinical trial: glycosylated hemoglobin (HbA1c); type: in vivo, human; conditions: for Effect on glycosylated hemoglobin level (in words) / Post-treatment HbA1c - pre-treatment HbA1c, mean value / Post-treatment HbA1c <7.0% with no hypoglycemia, Yes-N (%) / Post-treatment HbA1c <7.0%, Yes-N (%): 16 weeks of treatment; for Effect on glycosylated hemoglobin level (in words): Kruskal-Wilcox test; for Post-treatment HbA1c, mean value: after 16 weeks of treatment; for Pre-treatment HbA1c, mean value: baseline before treatment
Procedure: From June 2015 to October 2018, a double-blind, randomized, and parallel-controlled trial, studying the effects of the combined use of Bifidobacterium and berberine on pre-diabetic and type 2 diabetes mellitus patients, was conducted in 10 research centers in Xi'an, Yan'an and Shangluo of Shaanxi province, etc., including the First Affiliated Hospital of the Fourth Military Medical University. The trial included an enrollment stage of 2 weeks and a treatment stage of 16 weeks. After passing the first visit 1 (see V1 in Table 1), the subjects entered the enrollment stage, i.e., 2 weeks of lifestyle intervention, followed by a re-screening (see V2 in Table 1). The subjects were subjected to a 16-week course of treatment after passing the screening. See Table 1 for the detailed screening parameters. After the enrollment stage, the baseline data of the 300 successfully enrolled subjects were collected. Meanwhile, the subjects started to receive lifestyle guidance, and were randomly divided into four groups for 16 weeks of treatments. 1) Bifidobacterium group: the subjects were administered with Bifidobacterium capsules (Livzon Pharmaceutical Group Inc., batch no.: 20141013), 0.35 g/capsule, each capsule containing 50,000,000 viable bacteria (Bifidobacterium adolescentis DM8504), 2 capsules/time, 2 times/day, plus berberine placebo tablets (Northeast Pharma Group Shenyang First Pharma Co., Ltd., Lot no.: 20150101, containing 80.2% microcrystalline cellulose, 9.4% pregelatinized starch, 6.4% sodium carboxymethyl starch, 1% magnesium stearate, and 3% copovidone), 0.1 g/tablet, 5 tablets/time, 2 times/day. 2) Berberine group: the subjects were administered with berberine tablets (Northeast Pharma Group Shenyang First Pharma Co., Ltd., Lot no.: 130917, each tablet weighted 0.165 g and contained 0.1 g active berberine ingredient (berberine hydrochloride), with the same excipients as the placebo tablets), 5 tablets/time, 2 times/day, plus Bifidobacterium placebo capsules (Livzon Pharmaceutical Group Inc., Lot no.: 141001, specifically containing 0.348 g spray-dried lactose, and 0.002 g magnesium stearate), 0.35 g/capsule, 2 capsules/time, 2 times/day. 3) Combination Group: the subjects were administered with Bifidobacterium capsules, 0.35 g/capsule, each capsule containing 50,000,000 viable bacteria (B. adolescentis DM8504), 2 capsules/time, 2 times/day, plus berberine tablets, 0.1 g/tablet, each tablet containing 0.1 g active berberine ingredient (berberine hydrochloride), 5 tablets/time, 2 times/day. 4) Control group: the subjects were administered with Bifidobacteria placebo capsules, 0.35 g/capsule, 2 capsules/time, 2 times/day, plus berberine placebo tablets, 0.1 g/tablet, 5 tablets/time, 2 times/day. Bifidobacterium capsules were taken after meals and berberine tablets were taken before meals. Before blood collection, the subjects were kept still for 5 min. For serum insulin assays, 5 ml of whole blood was collected at fasting, and 30 min and 2 h post glucose intake, and then subjected to centrifugation […]. The obtained serum was collected in the cryogenic vials. For the glycosylated hemoglobin (HbA1c) test, 2 ml of whole blood was collected and placed in EDTA-containing tubes. For the GLP-1 and glucagon measurements, 5 ml of whole blood was collected in vacutainers containing EDTA and aprotinin at fasting, and 30 min and 2 h post meals, subjected to centrifugation, and the obtained serum was collected in cryogenic vials and stored at −20° C. Soybean-sized stool sample was placed in a dry and sterile collection tube, and sent to the detection center within 24 h for cryopreservation. […]

[2] = test system: pre-diabetic and type 2 diabetes mellitus patients; test: Clinical trial: venous plasma glucose at 2 hours post OGTT (2-h PPG); type: in vivo, human; conditions: for Effect on 2 h-PPG (in words) / Post-treatment 2-h PPG - pre-treatment 2-h PPG, mean value / Post-treatment 2-h PPG <10.0 mmol/L, Yes-N (%): 16 weeks of treatment; for Effect on 2 h-PPG (in words): Kruskal-Wilcox test; for Post-treatment 2-h PPG, mean value: after 16 weeks of treatment; for Pre-treatment 2-h PPG, mean value: baseline before treatment
Procedure: From June 2015 to October 2018, a double-blind, randomized, and parallel-controlled trial, studying the effects of the combined use of Bifidobacterium and berberine on pre-diabetic and type 2 diabetes mellitus patients, was conducted in 10 research centers in Xi'an, Yan'an and Shangluo of Shaanxi province, etc., including the First Affiliated Hospital of the Fourth Military Medical University. The trial included an enrollment stage of 2 weeks and a treatment stage of 16 weeks. After passing the first visit 1 (see V1 in Table 1), the subjects entered the enrollment stage, i.e., 2 weeks of lifestyle intervention, followed by a re-screening (see V2 in Table 1). The subjects were subjected to a 16-week course of treatment after passing the screening. See Table 1 for the detailed screening parameters. After the enrollment stage, the baseline data of the 300 successfully enrolled subjects were collected. Meanwhile, the subjects started to receive lifestyle guidance, and were randomly divided into four groups for 16 weeks of treatments. 1) Bifidobacterium group: the subjects were administered with Bifidobacterium capsules (Livzon Pharmaceutical Group Inc., batch no.: 20141013), 0.35 g/capsule, each capsule containing 50,000,000 viable bacteria (Bifidobacterium adolescentis DM8504), 2 capsules/time, 2 times/day, plus berberine placebo tablets (Northeast Pharma Group Shenyang First Pharma Co., Ltd., Lot no.: 20150101, containing 80.2% microcrystalline cellulose, 9.4% pregelatinized starch, 6.4% sodium carboxymethyl starch, 1% magnesium stearate, and 3% copovidone), 0.1 g/tablet, 5 tablets/time, 2 times/day. 2) Berberine group: the subjects were administered with berberine tablets (Northeast Pharma Group Shenyang First Pharma Co., Ltd., Lot no.: 130917, each tablet weighted 0.165 g and contained 0.1 g active berberine ingredient (berberine hydrochloride), with the same excipients as the placebo tablets), 5 tablets/time, 2 times/day, plus Bifidobacterium placebo capsules (Livzon Pharmaceutical Group Inc., Lot no.: 141001, specifically containing 0.348 g spray-dried lactose, and 0.002 g magnesium stearate), 0.35 g/capsule, 2 capsules/time, 2 times/day. 3) Combination Group: the subjects were administered with Bifidobacterium capsules, 0.35 g/capsule, each capsule containing 50,000,000 viable bacteria (B. adolescentis DM8504), 2 capsules/time, 2 times/day, plus berberine tablets, 0.1 g/tablet, each tablet containing 0.1 g active berberine ingredient (berberine hydrochloride), 5 tablets/time, 2 times/day. 4) Control group: the subjects were administered with Bifidobacteria placebo capsules, 0.35 g/capsule, 2 capsules/time, 2 times/day, plus berberine placebo tablets, 0.1 g/tablet, 5 tablets/time, 2 times/day. Bifidobacterium capsules were taken after meals and berberine tablets were taken before meals. Before the oral glucose tolerance test (OGTT), the subjects took regular diets for at least 3 days, with carbohydrates no less than 150 g. After 10-12 h fasting, initial blood samples were collected after the subjects emptied their bladders. Then the subjects drank a sugar solution made by dissolving 75 g anhydrous glucoses in 300 ml water over about 5 min, and were collected for blood samples after 30 min and 2 h. […]

Molecule: COc1ccc2cc3[n+](cc2c1OC)CCc1cc2c(cc1-3)OCO2 [Berberine, berberine hydrochloride]
- Effect on glycosylated hemoglobin level (in words) [1]: not significantly different from that of the combined use of berberine and Bifidobacterium
- Post-treatment HbA1c - pre-treatment HbA1c, mean value ([1]; FAS): −0.1170%
- Post-treatment HbA1c <7.0% with no hypoglycemia, Yes-N (%) ([1]; FAS): 40(81.63) N (%)
- Post-treatment HbA1c <7.0%, Yes-N (%) ([1]; FAS): 48(97.96) N (%)
- Post-treatment HbA1c, mean value ([1]; FAS): 6.0800%
- Pre-treatment HbA1c, mean value ([1]; FAS): 6.1900%
- Post-treatment HbA1c <7.0% with no hypoglycemia, Yes-N (%) ([1]; PPS): 28(75.68) N (%)
- Post-treatment HbA1c <7.0%, Yes-N (%) ([1]; PPS): 36(97.30) N (%)
- Effect on 2 h-PPG (in words) [2]: good effect too
- Post-treatment 2-h PPG - pre-treatment 2-h PPG, mean value ([2]; FAS): -1.1 mmol/L
- Post-treatment 2-h PPG <10.0 mmol/L, Yes-N (%) ([2]; FAS): 35(71.43) N (%)
- Post-treatment 2-h PPG, mean value ([2]; FAS): 9.84 mmol/L
- Pre-treatment 2-h PPG, mean value ([2]; FAS): 11.2 mmol/L
- Post-treatment 2-h PPG <10.0 mmol/L, Yes-N (%) ([2]; PPS): 24(64.86) N (%)

Molecule: Bifidobacterium
- Effect on glycosylated hemoglobin level (in words) [1]: no glycosylated hemoglobin lowing effect
- Post-treatment HbA1c - pre-treatment HbA1c, mean value ([1]; FAS): −0.0545%
- Post-treatment HbA1c <7.0% with no hypoglycemia, Yes-N (%) ([1]; FAS): 76(76.00) N (%)
- Post-treatment HbA1c <7.0%, Yes-N (%) ([1]; FAS): 88(88.00) N (%)
- Post-treatment HbA1c, mean value ([1]; FAS): 6.1500%
- Pre-treatment HbA1c, mean value ([1]; FAS): 6.1900%
- Post-treatment HbA1c <7.0% with no hypoglycemia, Yes-N (%) ([1]; PPS): 61(73.49) N (%)
- Post-treatment HbA1c <7.0%, Yes-N (%) ([1]; PPS): 71(85.54) N (%)
- Effect on 2 h-PPG (in words) [2]: no such effect
- Post-treatment 2-h PPG - pre-treatment 2-h PPG, mean value ([2]; FAS): -0.246 mmol/L
- Post-treatment 2-h PPG <10.0 mmol/L, Yes-N (%) ([2]; FAS): 45(45.00) N (%)
- Post-treatment 2-h PPG, mean value ([2]; FAS): 11.3 mmol/L
- Pre-treatment 2-h PPG, mean value ([2]; FAS): 11.4 mmol/L
- Post-treatment 2-h PPG <10.0 mmol/L, Yes-N (%) ([2]; PPS): 31(37.35) N (%)
